From patent publication US20150343016A1, “CHEMICAL ENTITIES AND THERAPEUTIC USES THEREOF” (The Regents of the University of Colorado, a body corporate, priority 2010, published 2015)
“Also recorded” adds a separate entry of the source.

How the values were obtained:
[1] = test system: H157 cells; assay: MTT assay, Bouvardin with ionizing radiation, H157; type: cell-based, human
Description: “Combination Index” computation. Combination Indices were calculated using CalcuSyn software (Biosoft), which uses the method of Chou and Talalay. This method first computes drug-induced effect using the Hill Equation: where E is the measured effect; C is the drug concentration; Emax is the full range of drug effect, usually at or near 100%; IC50 is the drug concentration producing the median effect of 50%; and n is the curve shape parameter describing the steepness of the concentration-effect relationship. The Chou and Talalay method then linearizes the Hill Equation by logarithmic transformation as: where fu is the fraction of cells left unaffected after drug exposure, fa is the fraction of cells affected by the exposure, C is the drug concentration used, Cm is the concentration to achieve the median effect, and n is the curve shape parameter. Cm and n are equivalent to IC50 and n, respectively, in the Hill Equation. The values of n (obtained from the slope), nlog(Cm) (obtained from the absolute value of the intercept), and, therefore, Cm are obtained by plotting log(fu−1−1) versus log(C). These numbers are then used to compute the Combination Index (CI) according to the formula: CI=(D)1/(Dx)1+(D)2/(Dx)2 (26). (Dx)1 and (Dx)2 are the doses required to achieve a given effect level for each treatment, i.e. a specified value of Fraction Affected or Fa. (D)1 and (D)2 are the doses of each treatment in a given combination which gives the same Fa.
In FIG. 16 MTT assays were used to determine the effect of Bouvardin in combination with IR. Cells were either treated with drug for 24 hr prior to irradiation (A and C, ‘pre-treatment’) or drug and radiation were applied on the same day (B and D, ‘same day treatment’). (A & B) Fraction of cells killed or otherwise eliminated (Fraction Affected) at different doses of Bouvardin and 0 or 2 Gy of IR. (C & D) Combination Index (CI) data from two experiments with pre-treatment protocol, to illustrate reproducibility. CIs below 1 indicate synergy.
In the absence of radiation, the drug has an IC50 (Fraction Affected, Fa=0.5) in the nM range ([…], ‘0 Gy’). Fraction Affected is determined by the formula, 1−(x/y), where x is the MTT signal for the experimental sample and y is the MTT signal for the un-treated control. For example, if the MTT signal in the experimental is 30% of the MTT signal in the control, fraction affected is 0.7. Radiation increased the Fa in a dose-dependent manner in the absence of drug. The addition of the drug further increased the Fa for each dose of radiation. This happened whether the drug was added 24 hr before irradiation (pre-treatment, FIGS. 16A,C) or concurrently (same day treatment, FIGS. 16B,D).
The efficiency of Bouvardin in increasing the effect of radiation on cancer cells is measured in terms of Combination Index (CI) as determined by CalcuSyn software according to the method of Chou and Talalay. This method is widely used in biomedical literature and it has been applied to combinations of antitumor drugs. CI values are calculated from Fa values for multiple drug and radiation doses such as those shown in FIGS. 16 A and B. CI computation takes into account the shape of the dose-response curve, the maximal effect, the intercept, and the IC50 values for drug at each dose of radiation and IC50 for radiation at each dose of drug. […]
The growth inhibitory effects of Bouvardin with ionizing radiation (IR) were evaluated using a modified tetrazolium salt (MTT) assay. […]

[2] = test system: H157 cells; assay: Clonogenic assay, Bouvardin with IR, H157; type: cell-based, human
Description: To assess the effect of Bouvardin, another measure of cell survival, namely, clonogenic assays, was employed. […] For example, IC50 for IR at 0 and 10 nM of Bouvardin, extrapolated from the graph in FIG. 17A, are approximately 1.5 Gy and 1.0 Gy (dark and light dotted lines respectively).
In FIG. 17 (A) Clonogenic assays were used to confirm the effects of Bouvardin in combination with radiation in H157 cells. Cells were plated in 6 well plates at 1,000 cells per well. 24 hours later, various doses of (1 nM, 5 nM and 10 nM) of Bouvardin were added with media alone as a control. 24 hours after the addition of Bouvardin, the cells were irradiated at 0, 2, 4 and 6 Gy. Colonies were allowed to form for 2 weeks and then counted. The results are shown as a percentage of control (no drug, no IR). Error bar=±1SEM. (B) The effect of Bouvardin (Bvd) and radiation on H157 xenografts in athymic mice. Bouvardin treatment began when tumors had reached approximately 200 mm3. […]
The survival of cells treated with Bouvardin and IR was measured by performing standard clonogenic assays. […] The colonies were then stained with crystal violet (1% in methanol), rinsed 3× with water, and colonies with greater than 50 cells were counted using a dissection microscope. Fraction survival was calculated as a percentage of the control (no drug, no IR).

In the case of `COc1ccc(C[C@H]2C(=O)N[C@H](C)C(=O)N(C)[C@@H]3C(=O)N(C)[C@@H](Cc4ccc(O)c(c4)Oc4ccc(cc4)[C@H]3O)C(=O)N[C@@H](C)C(=O)N[C@H](C)C(=O)N2C)cc1` (stereo in doubt) [Bouvardin, bouvardin], the “interaction with radiation in cell-based assays” value ([1]; 0.3 μM of drug) is reported as “synergistically”, the “interaction with radiation in cell-based assays” value ([1]; 0.6 μM of drug) is reported as “additively/antagonistically” and the “interaction of Bouvardin with radiation” value ([1]; H157) is reported as “synergy over a wide range of doses; also recorded: synergize”. The “IC50 (Fraction Affected, Fa=0.5)” value ([1]; H157, in the absence of radiation (0 Gy)) was “nM range”, the “interaction of Bouvardin with radiation” value ([1]; H157, listed as bouvardin) was “synergizes with ionizing radiation” and the “effect on radiation-induced reduction of clonogenicity” value [2] was “increased the effect of radiation in reducing the clonogenicity”.
